The values below come from ChEMBL document CHEMBL5257079, “Discovery of FXR/PPARγ dual partial agonist” (Bioorg Med Chem, 2023).

The source made the active and inactive calls. No cut-off for these calls is given here.

The target of test [1] is T1, Bile acid receptor (Homo sapiens, UniProt Q96RI1).
T1 sequence (Q96RI1 whole entry): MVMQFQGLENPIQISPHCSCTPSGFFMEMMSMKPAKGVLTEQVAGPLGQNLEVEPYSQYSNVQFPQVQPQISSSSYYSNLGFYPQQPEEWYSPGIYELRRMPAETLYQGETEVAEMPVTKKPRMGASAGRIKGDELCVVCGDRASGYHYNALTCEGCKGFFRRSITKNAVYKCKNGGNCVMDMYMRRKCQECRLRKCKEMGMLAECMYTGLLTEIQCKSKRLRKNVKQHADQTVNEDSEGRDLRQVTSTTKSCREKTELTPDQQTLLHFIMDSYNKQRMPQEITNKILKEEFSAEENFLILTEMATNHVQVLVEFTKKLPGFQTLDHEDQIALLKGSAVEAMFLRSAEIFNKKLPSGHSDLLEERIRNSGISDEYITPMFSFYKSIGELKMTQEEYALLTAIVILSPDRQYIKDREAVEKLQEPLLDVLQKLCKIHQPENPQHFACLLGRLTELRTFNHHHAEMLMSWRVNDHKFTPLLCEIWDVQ
The experiment in a line: Partial agonist activity at FXR-LBD-GST (unknown origin) by TR-FRET assay. Particulars: read-out: EC50. Background: In TR-FRET formats the signal depends on donor and acceptor labels being close together.

Test [2] has as its target T1, Bile acid receptor. The experiment in a line: Partial agonist activity at human FXR expressed in Huh-7 cells in presence of CDCA by luciferase reporter gene assay. The format is cell-based. For orientation: In a reporter assay the amount or activity of a reporter protein is the signal.
In test [3] the target is T2, Bile acid receptor (Homo sapiens) (UniProt Q96RI1).
T2 sequence (whole entry): T1 sequence (Q96RI1 whole entry)
The test can be described thus: Partial agonist activity at human FXR expressed in Huh-7 cells in presence of CDCA by luciferase reporter gene assay relative to GW4064. Format: cell-based.

Test [4] deals with T3, Oxysterols receptor LXR-alpha (Homo sapiens) (UniProt Q13133).
T3 sequence (whole entry): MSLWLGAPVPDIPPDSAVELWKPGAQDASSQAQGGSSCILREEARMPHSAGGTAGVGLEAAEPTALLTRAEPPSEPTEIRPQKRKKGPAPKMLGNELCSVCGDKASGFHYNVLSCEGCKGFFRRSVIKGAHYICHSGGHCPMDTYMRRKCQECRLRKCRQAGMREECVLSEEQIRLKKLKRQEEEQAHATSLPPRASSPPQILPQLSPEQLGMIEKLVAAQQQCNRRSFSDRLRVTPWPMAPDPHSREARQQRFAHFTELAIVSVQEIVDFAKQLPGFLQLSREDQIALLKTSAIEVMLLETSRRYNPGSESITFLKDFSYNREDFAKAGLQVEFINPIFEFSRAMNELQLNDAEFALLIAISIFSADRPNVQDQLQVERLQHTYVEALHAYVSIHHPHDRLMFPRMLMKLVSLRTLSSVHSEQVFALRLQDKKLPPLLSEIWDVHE
The experiment in a line: Activation of LXR alpha (unknown origin) at 10 uM.

The target in test [5] is T4, Oxysterols receptor LXR-beta (Homo sapiens) (UniProt P55055).
T4 sequence (whole entry): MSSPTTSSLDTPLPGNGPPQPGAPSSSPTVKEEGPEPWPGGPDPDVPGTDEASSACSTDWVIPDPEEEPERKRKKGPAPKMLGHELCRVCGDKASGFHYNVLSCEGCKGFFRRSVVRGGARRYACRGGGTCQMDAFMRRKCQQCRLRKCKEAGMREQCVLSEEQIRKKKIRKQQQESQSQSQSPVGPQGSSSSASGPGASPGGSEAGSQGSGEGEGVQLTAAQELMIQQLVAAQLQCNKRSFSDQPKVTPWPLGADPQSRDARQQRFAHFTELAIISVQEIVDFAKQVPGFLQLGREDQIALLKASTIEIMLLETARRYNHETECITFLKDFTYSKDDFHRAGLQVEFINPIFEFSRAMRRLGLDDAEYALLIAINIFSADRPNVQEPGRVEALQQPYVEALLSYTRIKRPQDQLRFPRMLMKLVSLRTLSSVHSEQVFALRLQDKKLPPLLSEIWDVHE
The test can be described thus: Activation of LXR beta (unknown origin) at 10 uM.

Test [6] addresses T5, Retinoic acid receptor RXR-alpha (Homo sapiens) (UniProt P19793).
T5 sequence (whole entry): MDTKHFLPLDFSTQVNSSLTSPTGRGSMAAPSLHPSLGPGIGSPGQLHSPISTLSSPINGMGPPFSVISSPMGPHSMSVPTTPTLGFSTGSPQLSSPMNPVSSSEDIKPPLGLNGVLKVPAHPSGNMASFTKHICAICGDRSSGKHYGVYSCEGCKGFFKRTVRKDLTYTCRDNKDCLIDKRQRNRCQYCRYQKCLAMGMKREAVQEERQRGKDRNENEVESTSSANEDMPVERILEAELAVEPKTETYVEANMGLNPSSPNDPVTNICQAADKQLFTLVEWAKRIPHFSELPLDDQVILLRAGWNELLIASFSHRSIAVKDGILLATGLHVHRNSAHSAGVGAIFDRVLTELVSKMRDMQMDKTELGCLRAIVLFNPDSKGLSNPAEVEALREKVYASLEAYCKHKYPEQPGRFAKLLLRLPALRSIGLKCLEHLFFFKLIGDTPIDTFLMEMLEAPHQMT
The experiment in a line: Activation of RXRalpha (unknown origin) at 10 uM.

For test [7], the target named is T6, Peroxisome proliferator-activated receptor gamma (Mus musculus) (UniProt P37238).
T6 sequence (whole entry): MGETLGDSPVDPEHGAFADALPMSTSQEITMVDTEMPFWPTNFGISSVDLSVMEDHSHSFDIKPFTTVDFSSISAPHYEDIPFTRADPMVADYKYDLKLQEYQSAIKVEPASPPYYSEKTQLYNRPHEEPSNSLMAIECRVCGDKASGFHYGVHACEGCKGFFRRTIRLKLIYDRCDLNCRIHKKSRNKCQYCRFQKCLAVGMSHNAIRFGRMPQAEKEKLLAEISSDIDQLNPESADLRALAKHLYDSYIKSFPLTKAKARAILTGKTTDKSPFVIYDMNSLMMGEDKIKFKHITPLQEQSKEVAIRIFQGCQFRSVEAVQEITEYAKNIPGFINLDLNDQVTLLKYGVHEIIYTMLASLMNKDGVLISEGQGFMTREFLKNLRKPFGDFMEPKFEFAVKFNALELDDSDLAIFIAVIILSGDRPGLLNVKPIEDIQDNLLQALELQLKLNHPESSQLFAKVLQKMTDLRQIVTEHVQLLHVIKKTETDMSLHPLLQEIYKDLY
The experiment in a line: Inhibition of TNFalpha stimulated PPARgamma phosphorylation at Ser273 residue in mouse 3T3-L1 cells preincubated for 60 mins followed by TNFalpha addition for 90 mins by Western blot analysis. Format: cell-based. To be noted: time 150.0 min. (A western blot detects proteins with antibodies after separation by electrophoresis.)

For orientation: EC50 means the concentration at which the effect is half-maximal. `CC(C)(C)c1ccc(-n2cnc3c(NC(=O)Cc4ccc(C(=O)O)cc4)cccc32)cc1`: the concentration for a half-maximal effect (EC50) was 250 nM in test [1] and 1900 nM in test [2]. Further, in test [3], the Activity stood at 35.6%. Also, the result in test [4], in test [5] and in test [6] was inactive. Moreover, the inhibition result in test [7] was “Dose-Dependent Effect”.
